Laboratory results as given in patent US10828303B2, “Composition comprising combination of TRH analog with arundic acid, and pharmaceutically acceptable salt of arundic acid” (Brivention Pharmaceutical (Shanghai) Inc., priority 2016, dated 2020).
Values joined by “and” are separate entries in the source; they are usually repeats but may differ in a detail not shown here. Equal values may be shown once.

Experiments:
[1] = test system: four-vessel occlusion model of rats; experiment: Morris water maze Transfer test in four-vessel occlusion model; type: in vivo, rat; details: 4-VO rats, oral 28 d: arundic acid 30, taltirelin 10, combination 10+3 mg/kg/day; for Residence time in Zone 3: Table 6
Procedure: The water temperature of the water maze during the experiment was kept at 23° C. […] A Transfer test was performed 3 days after the final administration of test drugs. For the Transfer test, the platform was removed, and the pool was filled with water to a water depth of 31 cm. To enable the rats to memorize surrounding various spatial arrangements, cues, such as posters and photographs, were placed on the wall. The cues always remained at the same locations during the experiment (FIG. 1: a plan view of Morris water maze, and the laboratory layout). Three days after the final administration of the test drug, the platform was removed and a Transfer test in which the pool was filled with water to a water depth of 31 cm was performed. […] Each rat was given only one trial, and the time was 180 seconds. The starting point was on the side opposite to the platform (see FIG. 1). In the Transfer test, the time spent in each Zone and the number of times the rats crossed over the platform location were determined. The behaviors of the rats in each trial were automatically analyzed with a CCD camera and the SMART (produced by Kyoto […]) behavioral analysis program by binarization of the white color of rats' fur and black ash color of the surrounding area. Significant differences between the groups in spatial memory according to the Morris water maze method were determined by the nonparametric Dunnett's multiple comparison test. 6) After completion of the Morris water maze test, the brain of each rat was perfusion-fixed with 4% paraformaldehyde. The details are as follows.

[2] = Body weight changes in four-vessel occlusion rats; type: in vivo, rat; details: for Body weight, Day 7 / Body weight, Day 14 / Body weight, Day 21 / Body weight, Day 28 / Body weight, Day 0: Mean ± S.E.; for Body weight, Day 7 / Body weight, Day 14 / Body weight, Day 21 / Body weight, Day 28: 4-VO rats, oral daily: arundic acid 30, taltirelin 10, combination 10+3 mg/kg/day; for Body weight, Day 0: before administration, one week after 4-VO surgery, groups later given arundic acid 30, taltirelin 10, combination 10+3 mg/kg/day; for Body weight change in words: compared with Group 2 (control), until day 28, arundic acid 30, taltirelin 10, combination 10+3 mg/kg/day
Procedure: 7-week-old (body weight: 200 to 240 g) male Crl: Wistar rats were used for an experiment after acclimation for 1 week or more. During the experimental period, the rats were raised in an animal room maintained at a room temperature of 23±1° C. and a humidity of 55±5%, and illuminated for 12 hours (6:30-18:30); with ad libitum access to food (Oriental Yeast, CRF-1) and water.
Arundic acid ((R)-(−)-2-propyloctanoic acid: Lot No. CS04818-503, M.W.186.29, specific gravity: 0.908), which is an astrocyte function-improving agent, used in this test is a product synthesized by Chemical Soft Co., Ltd. Taltirelin hydrate (hereinafter referred to as taltirelin, M.W.463.47: N-[(4S)-1-methyl-2,6-dioxohexahydropyrimidine-4-carbonyl]-L-histidyl-L-prolinamide (Lot No. N16P)), which is a ataxia-improving agent, used in this test is a product purchased from Matrix Scientific. When arundic acid was to be administered at a dose of 30 mg/kg/5 mL, 1.61 mL of 1N NaOH was added to 300 mg (306 μL) of arundic acid to dissolve the arundic acid, and 48.084 mL of water or 0.5% CMC (carboxymethyl cellulose) was added to the resulting solution to make a total volume of 50 mL. In the experiment, a 10-fold concentrated arundic acid solution was prepared and adjusted for the concentration before use. When taltirelin was to be administered at a dose of 3 mg/kg or 10 mg/kg, taltirelin was dissolved in distilled water in a volume of 5 ml/kg. The test drug(s) were orally administered for 28 days (including Saturdays, Sundays, and public holidays), starting from 1 week after preparation of four-vessel occlusion models.
Five groups of rats (4 to 6 rats per group) were used. The details are as follows. Group 1 is a group that was not subjected to four-vessel occlusion. Groups 2 to 5 are groups that were subjected to four-vessel occlusion.
A vertebral artery cauterization surgery was performed in accordance with the method of Pulsinelli & Brierley (Pulsinelli, W. A. and Brierley, J. B.: Stroke 10, 267, 1979). More specifically, the rats anesthetized with Nem-ravona (registered trademark) and Butal (registered trademark) were fixed in the prone position to a brain stereotaxic apparatus, and the dorsal cervical skin and muscle layer were incised to expose the first cervical vertebra. The tips of the tweezers of a bipolar coagulator (Mizuho Ikakogyo Co., Ltd.; MICROID) were inserted into the alar foramina on both sides of the first cervical vertebra, and the vertebral artery running upward toward the cerebral base was bilaterally cut off by electrocauterization. The skin was then sutured. Subsequently, the rats were fixed again in the supine position to an experimental surgical table, and the ventral cervical skin was incised. After the bilateral common carotid arteries were separated from surrounding tissues and silk thread was looped around the arteries, the skin was sutured. After completion of the surgery, the rats were returned to a cage and observed. No behavioral abnormality was confirmed.
Twenty-four hours after vertebral artery cauterization by the above method, the rats under isoflurane inhalation anesthesia were fixed in the supine position for immobilization before common carotid artery ligation on the following day. The ventral cervical skin was incised again to expose bilateral common carotid arteries. First, the right-side common carotid artery was occluded with an artery clamp or Mosquito hemostat forceps (both forceps were covered with a silicone tube to reduce stimulus to the blood vessel wall). After about 60 seconds, the left-side common carotid artery was occluded in the same manner. Since righting reflex (RR) of rats during bilateral common carotid artery occlusion, i.e., rats with brain ischemia, was lost, immobilization in the supine-position seemed unnecessary. However, sudden movements, such as walking-like motions of four limbs or lateral turning, were observed. […]

Row | Compound | Residence time in Zone 1 ([1]; Mean ± S.E.) | Residence time in Zone 1 (%) ([1]; Mean ± S.E.) | Residence time in Zone 2 ([1]; Mean ± S.E.) | Residence time in Zone 2 (%) ([1]; Mean ± S.E.) | Residence time in Zone 3 (%) ([1]; Mean ± S.E.) | Residence time in Zone 4 ([1]; Mean ± S.E.) | Residence time in Zone 4 (%) ([1]; Mean ± S.E.) | Transfer test Platform Crossing Times ([1]; Mean ± S.E.) | Transfer test Residence time in Zone 3 ([1]; Mean ± S.E.) | Residence time in Zone 3 ([1]; Mean ± S.E.) | Residence time in Zone 3 ([1]; individual rat, 3 mg/kg/day) | Residence time in Zone 1 ([1]; individual rat, 3 mg/kg/day) | Residence time in Zone 1 (%) ([1]; individual rat, 3 mg/kg/day) | Residence time in Zone 2 ([1]; individual rat, 3 mg/kg/day) | Residence time in Zone 2 (%) ([1]; individual rat, 3 mg/kg/day) | Residence time in Zone 3 (%) ([1]; individual rat, 3 mg/kg/day) | Residence time in Zone 4 ([1]; individual rat, 3 mg/kg/day) | Residence time in Zone 4 (%) ([1]; individual rat, 3 mg/kg/day) | Transfer test Platform Crossing Times ([1]; individual rat, 3 mg/kg/day) | Body weight, Day 7 [2] | also measured
1 | CCCCCC[C@@H](CCC)C(=O)O [Arundic acid, (R)-(−)-2-propyloctanoic acid] | 41.6 ± 8.7 s | 22.8 ± 4.3% | 42.0 ± 10.9 s | 23.0 ± 5.5% | 34.6 ± 5.1% | 34.9 ± 83 s | 19.6 ± 4.7% | 5.5 ± 1.4 | 62 ± 8.4 s | 61.9 ± 8.4 s | 82.9 s and 66.0 s and 43.6 s and 55.2 s | 24.0 s and 32.5 s and 63.9 s and 45.8 s | 13.3% and 19.3% and 33.3% and 25.4% | 16.9 s and 34.4 s and 68.2 s and 48.3 s | 9.4% and 20.4% and 35.5% and 26.8% | 46.0% and 39.1% and 22.7% and 30.6% | 56.5 s and 35.7 s and 16.4 s and 31.0 s | 31.3% and 21.2% and 8.5% and 17.2% | 6 and 9 and 2 and 5 | 255.5 ± 5.1 g | Body weight, Day 14 [2]: 272.6 ± 7.4 g; Body weight, Day 21 [2]: 288.0 ± 7.1 g; Body weight, Day 28 [2]: 308.5 ± 5.0 g; Body weight, Day 0 [2]: 228.7 ± 4.9 g; Body weight change in words [2]: favorable body weight increase
2 | CN1C(=O)C[C@@H](C(=O)N[C@@H](Cc2c[nH]cn2)C(=O)N2CCC[C@H]2C(N)=O)NC1=O [Taltirelin, N-[(4S)-1-methyl-2,6-dioxohexahydropyrimidine-4-carbonyl]-L-histidyl-L-prolinamide] | 39.3 ± 5.4 s | 21.7 ± 3.0% | 34.2 ± 10.3 s | 19.0 ± 5.8% | 31.6 ± 2.4% | 50.2 ± 8.5 s | 27.6 ± 4.6% | 5.3 ± 1.4 | 57 ± 4.1 s | 57.1 ± 4.1 s | 58.5 s and 66.9 s and 47.1 s and 56 s | 24.5 s and 44.4 s and 38.6 s and 49.7 s | 13.6% and 24.8% and 21.2% and 27.3% | 63 s and 30.4 s and 29.6 s and 14.1 s | 35.1% and 17.0% and 16.2% and 7.7% | 32.6% and 37.3% and 25.8% and 30.7% | 33.6 s and 37.5 s and 67 s and 62.5 s | 18.7% and 20.9% and 36.8% and 34.3% | 8 and 7 and 4 and 2 | 256.6 ± 8.7 g | Body weight, Day 14 [2]: 272.3 ± 10.3 g; Body weight, Day 21 [2]: 291.3 ± 12.0 g; Body weight, Day 28 [2]: 307.2 ± 12.2 g; Body weight, Day 0 [2]: 228.6 ± 4.5 g; Body weight change in words [2]: favorable body weight increase
